Measured values: patent US5190923A, “Peptide compounds containing a cyclic amide structure” (Adir Et Compagnie, priority 1990, dated 1993)

Experiments:
Format in all cases: in vivo
[1] = test system: sodium-dependent choline uptake (HACU); assay: Cholinergic deficit induced by barbiturate narcosis in mice (hippocampal HACU); conditions: mouse hippocampus
[2] = test system: oxotremorine-induced tremor; assay: Oxotremorine-induced tremor in mice; conditions: for minimal active dose (potentiation of tremor): IP
Method: Administered at a dose of 0.5 mg/kg IP, oxotremorine, a non-selective M1 -M2 muscarinic agonist leads to cholinergic symptoms of central origin, such as tremor. In control animals, the maximum tremor-inducing effect is observed after 15 minutes, and this effect disappears completely in the course of 45 to 60 minutes.
The administration of TRH (10 mg/kg IP) 30 minutes before that of oxotremorine potentiates the tremor (+50%) at its peak of intensity (15 minutes), but prolongs it to only a very small extent (15 minutes:+20%). The minimal active dose is 5 mg/kg.
Under the same conditions, the compounds of the invention also exert the same potentiating effect, but at much lower minimal active doses, and this effect persists for a further 60 minutes after the injection of oxotremorine. Thus, the minimal active doses are, for example, as follows: […]

[3] = test system: xylazine-induced loss of righting reflex; assay: Xylazine induced inhibition of the righting reflex in rats; conditions: IP
Method: The administration of a central α2 agonist, xylazine, to rats leads to loss of the animal's righting reflex. This effect is antagonized by yohimbine (α2 antagonist) and by agents facilitating noradrenaline release.
TRH antagonizes the effect of xylazine, and the median effective dose is close to 10 mg/kg IP. Under the same conditions, the ED50 of the compounds of Examples 1 and 5 are 0.1 and 0.3 mg/kg, respectively.

[4] = 30 minutes before oxotremorine 0.5 mg/kg IP

| Compound | counteraction of the fall in HACU ([1]; 10 mg/kg IP, administered 30 minutes before pentobarbital) [%] | counteraction of the fall in HACU ([1]; 10 mg/kg IP, administered simultaneously with pentobarbital (60 mg/kg IP)) [%] | counteraction of the fall in HACU ([1]; 30 mg/kg IP, administered 30 minutes before pentobarbital) | potentiation of the tremor at its peak of intensity (15 minutes) ([2]; 10 mg/kg IP, 30 minutes before oxotremorine 0.5 mg/kg IP) | prolongation of the tremor ([2]; 10 mg/kg IP, 30 minutes before oxotremorine, printed time 15 minutes) | minimal active dose (potentiation of tremor) [2, 4] [mg/kg] | potentiation of the tremor measured at the peak ([2]; administered 60 minutes before the muscarinic agonist) | median effective dose (ED50), antagonism of the effect of xylazine [3] [mg/kg] | counteraction of the fall in HACU ([1]; 1 mg/kg IP, administered 30 minutes before induction of narcosis) [%] | counteraction of the fall in HACU ([1]; 3 mg/kg IP, administered 30 minutes before induction of narcosis) [%] |
| --- | --- | --- | --- | --- | --- | --- | --- | --- | --- | --- |
| NC(=O)[C@@H]1CCCN1C(=O)[C@H](Cc1cnc[nH]1)NC(=O)[C@@H]1CCC(=O)N1 [TRH] | -1.9 | -35 | +4.8% | +50% | +20% | 5 | no longer potentiates the tremor | ~10 | – | – |
| AZEP-(S)(N.tau.-Me)His-(1S,3S,4R)ABH-NH2 [Example 1] | – | – | – | – | – | 0.3 | – | 0.1 | -25.5 | -61.1 |
